Results taken from patent publication US20170014432A1, “COMPOSITIONS AND METHODS FOR REDUCING CHRONIC LOW-LEVEL INFLAMMATION” (priority 2014, published 2017).

Test system: delta-5-desaturase
Test: Two-week feeding study, AA/DGLA ratio in plasma
Format: in vivo, mice
Settings: for Average % decrease in AA/DGLA Ratio in Plasma: mice, 36.7 mg/day sesamol palmitate in safflower oil by gavage, low-fat diet
Description: To determine the ability of a sesamol derivative of the present invention to inhibit the formation of arachidonic acid, a two-week feeding study was done with two groups of mice with 8 mice in each group. We mixed 4.4 g of sesamol palmitate into 60 ml of safflower oil. This provided a concentration of sesamol palmitate of 73.3 mg/ml. The mice in the sesamol group received 500 μl each day (36.7 mg) via gavage of the sesamol palmitate compound in safflower oil whereas the control group received 500 μl of the safflower oil control. Both groups were maintained on a low-fat diet. 200 μl of blood was drawn at three time points (0, 1, and 2 weeks) for analysis of the fatty acid composition in the plasma.
Since the sesamol derivative, sesamol palmitate, inhibits the enzyme delta-5-desaturase that converts dihomo gamma linolenic acid (DGLA) to arachidonic acid (AA), we choose to look at the decrease in the AA/DGLA ratio as an indication of efficacy of sesamol palmitate in inhibiting the key enzyme. The percent difference between the AA/DGLA ratio in each […] was determined at the starting point and at days 7 and 14. The percent differences in the AA/DGLA per each rat in the active and placebo groups were then averaged.

CCCCCCCCCCCCCCCC(=O)Oc1ccc2c(c1)OCO2 [Sesamol Palmitate]
Average % decrease in AA/DGLA Ratio in Plasma (Days 0-7): −25.4%
Average % decrease in AA/DGLA Ratio in Plasma (Days 0-14): −23.4%
Average decrease in the AA/DGLA ratio relative to placebo group (active group versus placebo group): approximately double
